# Where two headings read alike, the source gives them in different places.
# How the values were obtained:
# PI 3-kinase alpha [1] = biological target: T1, PI 3-kinase alpha (Homo sapiens, UniProt P42336); assay: Kinase Glo Luminescent Kinase Assay (Kglo), assay A; type: biochemical; settings: read-out: Assay A PI3Kα IC50
# Target sequence in this assay (P42336 whole entry): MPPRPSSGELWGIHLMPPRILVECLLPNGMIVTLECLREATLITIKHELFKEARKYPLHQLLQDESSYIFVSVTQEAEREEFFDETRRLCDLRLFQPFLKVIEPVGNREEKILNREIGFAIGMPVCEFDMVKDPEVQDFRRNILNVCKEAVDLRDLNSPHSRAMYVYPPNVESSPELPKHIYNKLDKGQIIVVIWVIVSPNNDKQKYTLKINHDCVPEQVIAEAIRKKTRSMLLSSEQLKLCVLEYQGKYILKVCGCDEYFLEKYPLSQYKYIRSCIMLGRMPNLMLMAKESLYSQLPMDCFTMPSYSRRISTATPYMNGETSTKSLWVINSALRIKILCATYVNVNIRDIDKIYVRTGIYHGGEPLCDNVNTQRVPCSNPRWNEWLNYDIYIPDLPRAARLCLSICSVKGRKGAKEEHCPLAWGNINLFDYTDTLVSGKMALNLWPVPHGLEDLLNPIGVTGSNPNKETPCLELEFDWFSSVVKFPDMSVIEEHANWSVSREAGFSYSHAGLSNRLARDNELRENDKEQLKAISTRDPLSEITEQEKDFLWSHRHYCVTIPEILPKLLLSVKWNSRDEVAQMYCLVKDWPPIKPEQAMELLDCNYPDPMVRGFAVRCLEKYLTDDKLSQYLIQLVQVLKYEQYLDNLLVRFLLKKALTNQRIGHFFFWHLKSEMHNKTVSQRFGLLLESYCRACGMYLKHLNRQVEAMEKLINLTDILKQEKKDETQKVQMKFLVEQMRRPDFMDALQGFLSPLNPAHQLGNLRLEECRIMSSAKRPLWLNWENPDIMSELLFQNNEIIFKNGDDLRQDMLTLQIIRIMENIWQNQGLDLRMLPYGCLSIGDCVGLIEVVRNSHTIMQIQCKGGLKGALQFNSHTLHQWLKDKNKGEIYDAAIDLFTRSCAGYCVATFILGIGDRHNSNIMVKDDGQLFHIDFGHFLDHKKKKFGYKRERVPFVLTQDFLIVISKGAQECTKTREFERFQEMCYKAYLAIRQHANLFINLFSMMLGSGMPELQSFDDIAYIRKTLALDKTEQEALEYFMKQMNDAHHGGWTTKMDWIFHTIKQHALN
# PI 3-kinase beta [2] = biological target: T2, PI 3-kinase beta (Homo sapiens, UniProt P42338); assay: Kinase Glo Luminescent Kinase Assay (Kglo), assay B; type: biochemical; settings: read-out: Assay B PI3Kβ IC50
# Vps34 = Vps34 (Homo sapiens, UniProt Q8NEB9); assay: Kinase Glo Luminescent Kinase Assay (Kglo), assay C; type: biochemical
# PI 4-kinase beta = PI 4-kinase beta (Homo sapiens, UniProt Q9UBF8); assay: Kinase Glo Luminescent Kinase Assay (Kglo), assay D; type: biochemical
# Description: Kinase Glo Luminescent Kinase Assay (Kglo) for Pb 3-Kinase Alpha (A), Pb 3-Kinase Beta (B), Vps34 (C), Pb 4-Kinase Beta (D)
# The Kinase Glo Luminescent Kinase Assay (Promega, Madison/Wis., USA) is a homogeneous HTS method of measuring kinase activity by quantifying the amount of ATP remaining in solution following a kinase reaction.
# L-α-phosphatidylinositol (PI), provided as 10 mg/ml solution in methanol, was transferred into a glass tube and dried under a nitrogen beam. It was then resuspended in 3% OctylGlucoside (1-0-n-octyl-beta-D-glucopyranoside) by vortexing and stored at 4° C. 5 μL of a mix of PI/OctylGlucoside with the PI 3-kinase alpha and PI 3-kinase beta subtypes, or Vps34 or PI 4-kinase beta were added. Kinase reactions were started by the addition of 5 μl of an ATP-mix containing in a final volume 10 μL 10 mM TRIS-HCl pH 7.5, 3 mM MgCl2, 50 mM NaCl, 0.05% CHAPS, 1 mM DTT and 1 μM ATP at room temperature.
# All fits were performed with the program XLfit4 (ID Business Solutions, Guildford, UK).
# PI 3-kinase gamma [3] = biological target: T3, PI 3-kinase gamma (Homo sapiens, UniProt P48736); assay: TR-FRET Adapta assay, assay E; type: biochemical; settings: read-out: Assay E PI3Kγ IC50
# PI 3-kinase alpha [4] = biological target: T1, PI 3-kinase alpha; assay: Cellular assay H2, p-AKT (Ser473) in Rat-1 cells, HTRF format; type: cell-based; settings: asterisked data: version H2 (HTRF format), read-out: Assay H PI3Kα IC50
# Target sequence in this assay (P42336 whole entry): as above
# Target sequence in this assay (Q63787 whole entry partner): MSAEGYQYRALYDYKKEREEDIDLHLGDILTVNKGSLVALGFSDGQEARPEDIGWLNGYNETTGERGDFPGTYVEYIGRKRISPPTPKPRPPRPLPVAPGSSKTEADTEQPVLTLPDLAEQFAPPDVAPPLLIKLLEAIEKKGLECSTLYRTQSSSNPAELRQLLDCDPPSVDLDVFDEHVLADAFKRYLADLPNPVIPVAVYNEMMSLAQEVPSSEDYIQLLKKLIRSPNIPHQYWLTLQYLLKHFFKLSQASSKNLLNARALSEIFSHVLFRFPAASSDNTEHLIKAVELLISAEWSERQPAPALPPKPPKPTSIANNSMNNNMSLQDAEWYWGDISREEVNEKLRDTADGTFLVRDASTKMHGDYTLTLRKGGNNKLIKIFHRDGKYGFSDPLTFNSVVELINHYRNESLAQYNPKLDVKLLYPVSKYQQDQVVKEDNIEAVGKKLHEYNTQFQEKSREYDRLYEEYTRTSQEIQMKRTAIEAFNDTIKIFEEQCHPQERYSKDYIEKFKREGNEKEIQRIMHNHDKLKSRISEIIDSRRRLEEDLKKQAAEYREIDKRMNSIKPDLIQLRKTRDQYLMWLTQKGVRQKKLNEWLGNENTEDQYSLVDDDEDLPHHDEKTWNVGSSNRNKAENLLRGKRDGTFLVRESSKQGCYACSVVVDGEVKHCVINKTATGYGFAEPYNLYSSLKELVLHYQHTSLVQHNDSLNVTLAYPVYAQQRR
# Description: (§1) Cellular Assays for PI 3-Kinase Alpha (H2), Beta (12) and Delta (J2): HTRF (Homogeneous Time Resolved Fluorescence) Format
# (§2) All cell lines were cultivated in complete growth medium (DMEM high glucose GlutaMAX™ Pyruvate, 10% (v/v) fetal bovine serum, 0.1 mM MEM NEAA, 25 mM HEPES, puromycin 10 μg/mL, 100 U/ml Penicillin, 100 μg/ml Streptomycin) to 90% confluency at 37° C./5% CO2/90% humidity in a humidified CO2 incubator and were split twice a week.
# (§3) Semi-automated preparation of cell lysates: For low (inhibited) controls, 0.9 mM NVP-BGT226-AF-1 in 90% (v/v) DMSO was added to the compound master plate. For compound testing, the cells were seeded at a density of 4000 (Rat-1_PI3Kdelta), 8000 (Rat-1_PI3Kalpha), or 6500 (Rat-1_PI3Kbeta) cells in 30 μl complete growth medium into cell culture treated 384-well plates and were grown at 37° C./5% CO2/90% humidity for 24 h. 10 μl of the compound predilutions were transferred to the cells.
# PI 3-kinase beta [5] = biological target: T2, PI 3-kinase beta; assay: Cellular assay I2, p-AKT (Ser473) in Rat-1 cells, HTRF format; type: cell-based; settings: asterisked data: version I2 (HTRF format), read-out: Assay I PI3Kβ IC50
# Description: as §1, §2, §3
# PI 3-kinase delta [6] = biological target: T4, PI 3-kinase delta (Homo sapiens, UniProt O00329); assay: Cellular assay J2, p-AKT (Ser473) in Rat-1 cells, HTRF format; type: cell-based; settings: asterisked data: version J2 (HTRF format), read-out: Assay J PI3Kδ IC50
# Description: as §1, §2, §3
# PI 3-kinase gamma [7] = biological target: T3, PI 3-kinase gamma; assay: Cellular U937 AKT assay K2 (HTRF); type: cell-based; settings: U937 cells, K2 format; read-out: Assay K2 PI3Kγ IC50
# Description: In assays K1 and K2, the compounds were tested for their ability to inhibit the production of phosphorylated AKT (Protein Kinase B) generated in a PI 3-kinase gamma isoform-dependent process in a U937 human cell line.
# Cellular U937 AKT Assay for PI 3-Kinase Gamma (K2)
# U937 cells are split every 3-4 days: 5×10^6 cells/flask (175 cm^2) in 40 ml.
# Semi-automated preparation of cell lysates: Cells were resuspended in HBSS, seeded (200′000 cells/well/60 μl) into a 384-well plate and incubated in a humidified 37° C., 5% CO2 incubator for 1.5 hours. The compounds were diluted with HBSS and 40 μl were added to the starved cells (except for wells 24 I-P). […] The cells were then incubated for 30 minutes at 37° C. and 5% CO2. Stimulation occurred during 3 minutes by addition of 20 μl MIP1α (final 10 ng/ml, diluted in HBSS) in the incubator. Wells 24 A-H were only stimulated with HBSS.
# The stimulation was then stopped by putting the cell plates on ice (filled with cold water). The cells were then centrifuged at 1200 rpm and 4° C. for 3 minutes.
# 80 μl of supernatant was removed. The cells were again centrifuged at 1200 rpm and 4° C. for 3 minutes. The supernatant was then removed by turning plates upside down and 30 μl of lysis buffer were added. The plate was incubated at room temperature for 30 minutes under shaking. 16 μl were then transferred to a ProxiPlate Plus 384-well. 4 μl of the master mix (each conjugate diluted 1:20 with detection reagent) were added to each well and the plate was kept in the dark at room temperature for 4 hours.
# [8] = system: IL-8-induced neutrophil shape change in human whole blood; assay: Whole blood neutrophil shape change assay (L); type: cell-based; settings: Homo sapiens, Neutrophil, IL-8, human whole blood, read-out: Assay L WBSC IC50
# Description: Whole Blood Neutrophil Shape Change Assay (L)
# IL-8 was made up to 2 μM stocks in 0.1% bovine serum albumin/PBS and stored at −80° C. On the day IL-8 was diluted in PBS (phosphate buffered saline) 10 minutes before use. IL-8 was used at final concentration of 2 nM and a concentration range from 0.003 to 200 nM for the donor dose response curve.
# Assay fixative solution was prepared fresh each day from 10× concentrated CellFIX™ solution diluted 1:10 in sterile distilled water and then 1:4 with PBS. Assay fixative solution was kept on ice prior to use.
# A 10× lysis buffer was prepared in advance by dissolving 20.75 g NH4Cl and 2.5 g KHCO3 in 250 ml sterile H2O. This 10× lysis buffer was filtered under sterile conditions and stored for up to two weeks at 4° C. On the day a 1× lysis solution was prepared with sterile distilled H2O and kept on ice prior to use.
# The test compounds were prepared as 10 mM stock solutions in 100% DMSO and were stored at 4° C. Once in use for an assay 10 mM stock compounds were thawed and stored at RT protected from light. Compound dilutions were prepared fresh on the day. The first series of dilutions in 100% DMSO were done first thing in the morning. Only once blood had been collected and arrived in laboratory was the next set of dilutions into PBS carried out (1:10 PBS, 10% DMSO). This limited the exposure of diluted compound to plastic and made sure the exposure timing was consistent between assays.
# Compound dilutions in 100% DMSO were prepared as described previously. Human whole blood was collected in K2 EDTA Vacutainers. Once blood was in the laboratory, compound dilutions into PBS were carried out as described previously and depicted in Table 1.
# The outer wells of the deep well assay plate were filled with 1200 μl of sterile distilled H2O in an effort to limit edge effects (rows A1-H1, A1-A12, A12-H12).
# An IL-8 dose response was determined for each blood donor examined, to monitor the donor response to IL-8. At this step in assay preparation for the IL-8 dose response samples 10 μl of PBS was added to designated wells. In addition the assay window without DMSO was also assessed each day. For such samples at this step in assay preparation 10 μl of PBS was added in the place of 10% DMSO.
# Lids were placed on the 96 well plates and samples were incubated for 15 minutes at 37° C. in a water-bath.
# Following the compound pre-incubation 10× final IL-8 was added to appropriate wells (10 μl of 20 nM working stock IL-8, final IL-8 concentration in blood=2 nM) and 10 μl of PBS was added to the un-stimulated controls. 10× final dose response range IL-8 was also added to designated wells (final concentration range on assay plate was 200 nM to 0.0005 nM, 1:5 serial dilution in PBS). The IL-8 and PBS were added to appropriate wells across all assay plates in the same sequence as the blood to compound addition. […] Samples were incubated for 5 minutes at 37° C. in a water-bath. Following the incubation sample plates were transferred to ice where 250 μl of chilled Assay Fixative Buffer was added promptly to all wells.
# Samples were incubated on ice for 7 minutes (no mixing). […] Once added samples were mixed once and incubated on ice for 30 minutes to achieve uniform red blood cells lysis. After lysis, 200 μl of sample was transferred to a 96 well microplate on ice. […] Granulocytes were identified based on differential side scatter (SSC) and forward scatter (FSC) characteristics.
# PI 3-kinase delta [9] = biological target: T4, PI 3-kinase delta; assay: TR-FRET Adapta assay, assay F
# [10] = Microsomal clearance assay (M); settings: intrinsic clearance in rat liver microsomes
# Description: (§4) The experiments were performed in 96-well glass plates at 37° C. on an automated Tecan EVO platform. Test compounds at a concentration of 10 mM in pure DMSO were diluted 1:1000 in water to 10 μM. […] Reactions were initiated by the addition of 150 μL of a cofactor solution containing 2 mM NADPH.
# mTOR = mTOR (Homo sapiens, UniProt P42345); assay: Lanthascreen kinase binding assay, assay G; settings: Assay G mTOR IC50 (μM)
# Description: Lanthascreen™ Kinase Binding Assay for mTOR (G)
# Binding of an inhibitor to the kinase competes for binding with the tracer, resulting in a loss of FRET.
# 50 nL of compound dilutions were dispensed onto white 384-well small volume polystyrene plate.
# PI 3-kinase alpha [11] = biological target: T1, PI 3-kinase alpha; assay: Cellular assay H1, p-Akt (S473) in Rat-1 cells, Surefire format; type: cell-based
# Target sequence in this assay (P42336 whole entry): as the sequence (P42336 whole entry) above
# Target sequence in this assay (Q63787 whole entry partner): as the sequence (Q63787 whole entry partner) above
# PI 3-kinase beta [12] = biological target: T2, PI 3-kinase beta; assay: Cellular assay I1, p-Akt (S473) in Rat-1 cells, Surefire format; type: cell-based
# PI 3-kinase delta [13] = biological target: T4, PI 3-kinase delta; assay: Cellular assay J1, p-Akt (S473) in Rat-1 cells, Surefire format; type: cell-based
# PI 3-kinase gamma [14] = biological target: T3, PI 3-kinase gamma; assay: Cellular U937 AKT assay K1 (MSD); type: cell-based; settings: U937 cells, K1 format; read-out: Assay K1 PI3Kγ IC50
# [15] = rat, microsomes, 1 µM, pH 7.4
# Description: as §4
# Chain of Vps34 (Q8NEB9 whole entry, species assumed): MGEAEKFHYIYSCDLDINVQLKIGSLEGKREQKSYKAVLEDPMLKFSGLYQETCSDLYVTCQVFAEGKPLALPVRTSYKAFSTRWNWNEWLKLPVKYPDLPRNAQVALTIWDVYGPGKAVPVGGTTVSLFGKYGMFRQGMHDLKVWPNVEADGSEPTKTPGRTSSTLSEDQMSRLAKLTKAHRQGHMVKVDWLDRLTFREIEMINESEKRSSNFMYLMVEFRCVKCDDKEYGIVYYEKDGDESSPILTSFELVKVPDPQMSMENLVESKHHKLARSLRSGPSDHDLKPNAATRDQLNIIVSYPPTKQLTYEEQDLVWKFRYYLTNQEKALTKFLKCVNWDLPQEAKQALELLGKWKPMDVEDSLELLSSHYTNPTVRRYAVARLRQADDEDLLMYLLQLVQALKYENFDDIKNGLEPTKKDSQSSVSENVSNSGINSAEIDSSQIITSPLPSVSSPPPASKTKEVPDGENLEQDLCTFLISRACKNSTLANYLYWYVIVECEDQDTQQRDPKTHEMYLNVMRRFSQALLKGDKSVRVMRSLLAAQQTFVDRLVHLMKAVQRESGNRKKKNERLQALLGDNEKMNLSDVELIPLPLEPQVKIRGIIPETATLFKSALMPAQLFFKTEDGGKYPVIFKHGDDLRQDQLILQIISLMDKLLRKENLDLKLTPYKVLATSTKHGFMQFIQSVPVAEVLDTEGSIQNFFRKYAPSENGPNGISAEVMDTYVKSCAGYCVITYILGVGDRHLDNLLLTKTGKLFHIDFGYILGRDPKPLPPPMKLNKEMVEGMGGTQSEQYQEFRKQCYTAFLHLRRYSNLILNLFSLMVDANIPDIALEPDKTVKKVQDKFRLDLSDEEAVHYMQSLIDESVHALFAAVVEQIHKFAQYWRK
# Chain of PI 4-kinase beta (Q9UBF8 whole entry): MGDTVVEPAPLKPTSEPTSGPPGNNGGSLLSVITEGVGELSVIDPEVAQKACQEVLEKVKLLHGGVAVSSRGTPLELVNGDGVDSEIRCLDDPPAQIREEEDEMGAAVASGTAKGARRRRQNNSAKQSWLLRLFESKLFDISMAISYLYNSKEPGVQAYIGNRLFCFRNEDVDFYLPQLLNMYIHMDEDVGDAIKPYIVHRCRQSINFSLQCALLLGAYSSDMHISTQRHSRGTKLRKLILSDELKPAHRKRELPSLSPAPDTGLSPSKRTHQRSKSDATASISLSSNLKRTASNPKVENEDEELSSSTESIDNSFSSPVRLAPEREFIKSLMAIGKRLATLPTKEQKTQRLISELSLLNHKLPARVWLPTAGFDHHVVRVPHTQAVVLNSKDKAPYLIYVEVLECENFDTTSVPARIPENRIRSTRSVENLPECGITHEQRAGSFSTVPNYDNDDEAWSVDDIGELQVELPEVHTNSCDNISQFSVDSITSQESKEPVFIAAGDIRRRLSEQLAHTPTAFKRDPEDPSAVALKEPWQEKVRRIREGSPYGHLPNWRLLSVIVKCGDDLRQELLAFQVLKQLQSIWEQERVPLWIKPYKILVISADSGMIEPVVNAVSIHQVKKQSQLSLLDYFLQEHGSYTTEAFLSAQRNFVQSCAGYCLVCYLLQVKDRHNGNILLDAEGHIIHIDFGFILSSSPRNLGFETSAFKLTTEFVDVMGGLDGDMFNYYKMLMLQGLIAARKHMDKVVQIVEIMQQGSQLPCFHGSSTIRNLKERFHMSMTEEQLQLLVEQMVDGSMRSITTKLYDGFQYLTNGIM
# T3 sequence (P48736 whole entry): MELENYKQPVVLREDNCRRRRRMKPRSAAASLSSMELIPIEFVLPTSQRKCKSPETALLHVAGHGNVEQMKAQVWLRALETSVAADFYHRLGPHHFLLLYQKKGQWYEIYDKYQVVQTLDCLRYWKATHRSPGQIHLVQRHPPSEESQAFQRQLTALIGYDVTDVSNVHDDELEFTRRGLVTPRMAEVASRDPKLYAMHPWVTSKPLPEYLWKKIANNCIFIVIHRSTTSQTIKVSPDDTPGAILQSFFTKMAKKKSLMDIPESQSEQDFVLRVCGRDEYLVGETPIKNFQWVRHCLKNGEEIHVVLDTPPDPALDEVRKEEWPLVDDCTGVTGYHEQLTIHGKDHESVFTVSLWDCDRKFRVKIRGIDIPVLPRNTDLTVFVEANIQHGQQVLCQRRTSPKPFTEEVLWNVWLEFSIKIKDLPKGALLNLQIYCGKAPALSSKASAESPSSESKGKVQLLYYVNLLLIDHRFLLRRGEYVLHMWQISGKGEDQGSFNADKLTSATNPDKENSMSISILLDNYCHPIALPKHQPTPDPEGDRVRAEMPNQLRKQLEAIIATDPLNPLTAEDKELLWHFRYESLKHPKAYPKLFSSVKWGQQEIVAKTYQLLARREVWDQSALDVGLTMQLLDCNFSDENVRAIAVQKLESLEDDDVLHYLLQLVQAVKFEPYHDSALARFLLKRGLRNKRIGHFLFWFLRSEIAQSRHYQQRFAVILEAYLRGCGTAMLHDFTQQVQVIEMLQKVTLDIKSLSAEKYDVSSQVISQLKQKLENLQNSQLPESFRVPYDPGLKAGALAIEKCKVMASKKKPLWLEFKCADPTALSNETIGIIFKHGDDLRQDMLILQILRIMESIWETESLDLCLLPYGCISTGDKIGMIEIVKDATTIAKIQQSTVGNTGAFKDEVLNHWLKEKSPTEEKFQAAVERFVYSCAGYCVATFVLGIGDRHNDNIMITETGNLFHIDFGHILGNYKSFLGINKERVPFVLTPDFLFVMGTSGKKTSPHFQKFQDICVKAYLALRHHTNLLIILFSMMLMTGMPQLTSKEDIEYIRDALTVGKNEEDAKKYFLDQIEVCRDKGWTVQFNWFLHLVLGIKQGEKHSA
IC50 (PI 3-kinase alpha [1]),IC50 (PI 3-kinase beta [2]),IC50 (Vps34; read-out: Assay C VPS34 IC50),IC50 (PI 4-kinase beta; read-out: Assay D PI4Kβ IC50),IC50 (PI 3-kinase gamma [3]),IC50 (PI 3-kinase alpha [4]),IC50 (PI 3-kinase beta [5]),IC50 (PI 3-kinase delta [6]),IC50 (PI 3-kinase gamma [7]),IC50 (PI 3-kinase delta [9]),Assay M RLM CI(int) [10],IC50 (PI 3-kinase delta [9]; read-out: Assay F PI3Kδ IC50),SMILES,IC50 [8],also measured
100 nM,690 nM,2.5 µM,2.3 µM,26 nM,2140 nM,4560 nM,970 nM,68 nM,670 nM,63 µL/min/mg,–,"Cc1ncc(-c2nc(-c3cc(S(=O)(=O)N[C@H]4C[C@@H](O)C4)ccc3C)cnc2N)s1 [Example 43a, cis-3-(5-Amino-6-(2-methylthiazol-5-yl)pyrazin-2-yl)-N-(3-hydroxycyclobutyl)-4-methylbenzenesulfonamide]",992 nM,–
230 nM,1500 nM,5.5 µM,4.8 µM,42 nM,5440 nM,2950 nM,2180 nM,180 nM,2200 nM,45 µL/min/mg,–,"Cc1ncc(-c2nc(-c3cc(S(=O)(=O)N[C@H]4C[C@H](O)C4)ccc3C)cnc2N)s1 [Example 43b, trans-3-(5-Amino-6-(2-methylthiazol-5-yl)pyrazin-2-yl)-N-(3-hydroxycyclobutyl)-4-methylbenzenesulfonamide]",–,–
30 nM,320 nM,–,4.9 µM,39 nM,350 nM,880 nM,280 nM,33 nM,–,83 µL/min/mg,100 nM,"Cc1ncc(-c2nc(-c3cc(S(=O)(=O)NCC4(CO)CCOCC4)ccc3C)cnc2N)s1 [Example 45.9, 3-(5-Amino-6-(2-methylthiazol-5-yl)pyrazin-2-yl)-N-((4-(hydroxymethyl)tetrahydro-2H-pyran-4-yl)methyl)-4-methylbenzenesulfonamide]",–,–
280 nM,3100 nM,> 10 µM,> 10 µM,57 nM,4000 nM,> 10000 nM,4240 nM,–,–,20 µL/min/mg,1000 nM,"Cc1ncc(-c2nc(-c3cc(S(=O)(=O)NCC(C)(C)O)ccc3C)cnc2N)o1 [Example 126, 3-(5-Amino-6-(2-methyloxazol-5-yl)pyrazin-2-yl)-N-(2-hydroxy-2-methylpropyl)-4-methylbenzenesulfonamide]",–,–
110 nM,880 nM,3 µM,1.8 µM,9 nM,1230 nM,2130 nM,580 nM,–,–,502 µL/min/mg,100 nM,"Cc1ncc(-c2nc(-c3cc(S(=O)(=O)NCC4CCCCO4)ccc3C)cnc2N)s1 (stereo not drawn) [Example 45.4, 3-(5-Amino-6-(2-methylthiazol-5-yl)pyrazin-2-yl)-4-methyl-N-((tetrahydro-2H-pyran-2-yl)methyl)benzenesulfonamide]",–,–

SMILES,IC50 (PI 3-kinase alpha [1]),IC50 (PI 3-kinase beta [2]),IC50 (Vps34; read-out: Assay C VPS34 IC50),IC50 (PI 4-kinase beta; read-out: Assay D PI4Kβ IC50),IC50 (PI 3-kinase gamma [3]),IC50 (PI 3-kinase alpha [4]),IC50 (PI 3-kinase beta [5]),IC50 (PI 3-kinase delta [6]),IC50 (PI 3-kinase gamma [7]),IC50 (PI 3-kinase delta [9]),Assay M RLM CI(int) [10],IC50 (PI 3-kinase delta [9]; read-out: Assay F PI3Kδ IC50),IC50 [8],also measured
"Cc1ccc(S(=O)(=O)NC2CCOCC2)cc1-c1cnc(N)c(-n2cncn2)n1 [Example 68, 3-(5-Amino-6-(1H-1,2,4-triazol-1-yl)pyrazin-2-yl)-4-methyl-N-(tetrahydro-2H-pyran-4-yl)benzenesulfonamide]",640 nM,2550 nM,–,–,72 nM,–,–,–,–,–,–,1500 nM,1790 nM,IC50 (Vps34): > 10 µM; IC50 (PI 4-kinase beta; Assay D PI4Kβ IC50 (μM)): 4.4 µM; IC50 (mTOR): 8.75 µM; IC50 (PI 3-kinase alpha [11]): 2840 nM; IC50 (PI 3-kinase beta [12]): 6.25 µM; IC50 (PI 3-kinase delta [13]): 3.11 µM; IC50 (PI 3-kinase gamma [14]): 430 nM; Assay M RLM CI(int) [15]: 54 µL/min/mg

# Source: patent US10004732B2 (Novartis AG, priority 2014, dated 2018)
